# Measured values reported in patent US10501464B2, “7-oxo-6-(sulfooxy)-1,6-diazabicyclo[3.2.1]octane-2-carboxamide containing compounds and their use in treating bacterial infections” (WOCKHARDT LIMITED, priority 2015, dated 2019).
# Read-outs that look alike come from different tables or passages of the source.
# Legend:
# Assay in all cases: Antibacterial activity, MIC by agar dilution (CLSI)
# Format in all cases: cell-based
# K. pneumoniae H 522 = conditions: compound tested alone
# Description: (§1) The biological activity of representative compounds according to the invention against various bacterial strains was investigated. In a typical study, overnight grown bacterial cultures were diluted appropriately and inoculated on the agar media containing doubling dilutions of the test compounds. Observations for growth or no growth was performed after 16-20 hours of incubation at 35±2° C. in the ambient air. The overall procedure was performed as per Clinical and Laboratory Standards Institute (CLSI) recommendations, (Clinical and Laboratory Standards Institute (CLSI), Performance Standards for Antimicrobial Susceptibility Testing, 20th Informational Supplement, M07-A9, Volume 32, No. 2, 2012). Molten Mueller Hinton Agar (BD, USA) containing serial dilutions of each antibacterial agent were poured on to the plates and allowed to solidify. Appropriate suspensions from the freshly grown cultures were prepared in normal saline so that about 10^4CFU/spot of the organism was delivered on to the drug containing agar plates using automated multipoint inoculator (Mast, UK). The plates were incubated in Biochemical oxygen demand (BOD) incubator at 37° C. for 18 hours and then examined for growth.
# (§2) Method for the determination of MIC: The Minimum Inhibitory Concentration (MIC) determination for the combinations was carried out in Muller Hinton Agar (MHA) (BD, USA) according to Clinical and Laboratory Standards Institute (CLSI) recommendations, (Clinical and Laboratory Standards Institute (CLSI), Performance Standards for Antimicrobial Susceptibility Testing, 20th Informational Supplement, M 100-S20, Volume 30, No. 1, 2010). In short, the test strains were adjusted to deliver about 10^4CFU per spot with a multipoint inoculator (Applied Quality Services, UK). The plates were poured with MHA containing doubling concentration range of representative compounds according to present invention. The plates were inoculated and were incubated at 35° C. for 18 hour. […] The Table 2 depicts the antibacterial activity profile of compounds according to present invention against various multidrug resistant bacterial strains.
# E. coli 7 MP = conditions: compound tested alone
# Description: as §1, §2
# K. pneumoniae H 521 = conditions: compound tested alone
# Description: as §1, §2
# E. coli 13353 = conditions: compound tested alone
# Description: as §1, §2
# K. pneumoniae H 525 = conditions: compound tested alone
# Description: as §1, §2
# E. coli M 138 = conditions: compound tested alone
# Description: as §1, §2
# P. mirabilis S 137B = conditions: compound tested alone
# Description: as §1, §2
# E. coli 13351 = conditions: compound tested alone
# Description: as §1, §2
# E. coli M 49 = conditions: compound tested alone
# Description: as §1, §2
# E. coli M 36 = conditions: compound tested alone
# Description: as §1, §2
# K. pneumoniae H 523 = conditions: compound tested alone
# Description: as §1, §2
# E. coli 13352 = conditions: compound tested alone
# Description: as §1, §2
# [1] = test system: K. pneumoniae ATCC 700603
# Description: as §1, §2
# E. coli M 50 = conditions: compound tested alone
# Description: as §1, §2
# [2] = Klebsiella pneumoniae, H522, K. pneumoniae H 522, read-out: MIC
# [3] = Escherichia coli, 7MP, read-out: MIC
# [4] = Klebsiella pneumoniae, H521, K. pneumoniae H 521, read-out: MIC
# [5] = Escherichia coli, 13353, E. coli 13353, read-out: MIC
# [6] = Klebsiella pneumoniae, H525, K. pneumoniae H 525, read-out: MIC
# [7] = Escherichia coli, M138, E. coli M 138, read-out: MIC
# [8] = Proteus mirabilis, S137B, read-out: MIC
# [9] = Escherichia coli, 13351, E. coli 13351, read-out: MIC
# [10] = Escherichia coli, M49, E. coli M 49, read-out: MIC
# [11] = Escherichia coli, M36, E. coli M 36, read-out: MIC
# [12] = Klebsiella pneumoniae, H523, K. pneumoniae H 523, read-out: MIC
# [13] = Escherichia coli, 13352, E. coli 13352, read-out: MIC
# [14] = Klebsiella pneumoniae, ATCC700603, compound tested alone, read-out: MIC
# [15] = Escherichia coli, M50, E. coli M 50, read-out: MIC
SMILES,MIC (K. pneumoniae H 522; [2]) [µg/mL],MIC (E. coli 7 MP; [3]) [µg/mL],MIC (K. pneumoniae H 521; [4]) [µg/mL],MIC (E. coli 13353; [5]) [µg/mL],MIC (K. pneumoniae H 525; [6]) [µg/mL],MIC (E. coli M 138; [7]) [µg/mL],MIC (P. mirabilis S 137B; [8]) [µg/mL],MIC (E. coli 13351; [9]) [µg/mL],MIC (E. coli M 49; [10]) [µg/mL],MIC (E. coli M 36; [11]) [µg/mL],MIC (K. pneumoniae H 523; [12]) [µg/mL],MIC (E. coli 13352; [13]) [µg/mL],"MIC [1, 14] [µg/mL]",MIC (E. coli M 50; [15]) [µg/mL],other results
O=C(NNC(=O)[C@@H]1CC[C@@H]2CN1C(=O)N2OS(=O)(=O)O)[C@@H]1C[C@H](n2cnnn2)CN1 [Example 24],4,8,4,4,4,4,> 32,2,16,4,4,2,> 32,4,–
O=C(NNC(=O)[C@@H]1CC[C@@H]2CN1C(=O)N2OS(=O)(=O)O)[C@@H]1C[C@H](n2nccn2)CN1 [Example 25],4,2,4,0.5,8,2,> 32,1,8,1,4,1,> 32,1,–
O=C(NNC(=O)[C@@H]1CC[C@@H]2CN1C(=O)N2OS(=O)(=O)O)[C@@H]1C[C@H](n2ccnn2)CN1 [Example 26],8,8,8,2,16,4,> 32,2,> 32,4,16,2,> 32,4,–
O=C(NNC(=O)[C@@H]1CC[C@@H]2CN1C(=O)N2OS(=O)(=O)O)C1C[C@H](n2cccn2)CN1 (some centres unmarked) [Example 27],4,8,4,1,4,2,> 32,1,> 32,1,4,1,> 32,1,–
O=C(NNC(=O)[C@@H]1CC[C@@H]2CN1C(=O)N2OS(=O)(=O)O)C1C[C@H](n2ccnc2)CN1 (some centres unmarked) [Example 28],4,–,4,–,4,2,> 32,–,8,–,4,–,> 32,–,MIC (E. coli 7 MP): 4 µg/mL; MIC (E. coli 13353; E. coli 13353): 1 µg/mL; MIC (E. coli 13351; E. coli 13351): 1 µg/mL; MIC (E. coli M 36; E. coli M 36): 1 µg/mL; MIC (E. coli 13352; E. coli 13352): 1 µg/mL; MIC (E. coli M 50; E. coli M 50): 2 µg/mL
O=C(NNC(=O)[C@@H]1CC[C@@H]2CN1C(=O)N2OS(=O)(=O)O)[C@@H]1C[C@H](n2cncn2)CN1 [Example 29],2,2,2,0.5,2,1,> 32,1,4,0.5,2,1,> 32,0.5,–
O=C(NNC(=O)[C@@H]1CC[C@@H]2CN1C(=O)N2OS(=O)(=O)O)[C@@H]1C[C@H](n2ccnc2)CN1 [Example 30],2,16,2,4,2,8,> 32,4,16,4,2,8,> 32,4,–
Cc1nnn([C@@H]2CN[C@H](C(=O)NNC(=O)[C@@H]3CC[C@@H]4CN3C(=O)N4OS(=O)(=O)O)C2)n1 [Example 31],16,16,16,4,8,8,> 32,4,> 32,4,16,4,> 32,8,–
O=C(NNC(=O)[C@@H]1CC[C@@H]2CN1C(=O)N2OS(=O)(=O)O)[C@@H]1C[C@@H](n2cccn2)CN1 [Example 32],–,–,–,–,–,–,–,–,–,–,–,–,–,–,MIC (K. pneumoniae H 522; K. pneumoniae H 522): 8 µg/mL; MIC (E. coli 7 MP): 16 µg/mL; MIC (K. pneumoniae H 521; K. pneumoniae H 521): 8 µg/mL; MIC (E. coli 13353; E. coli 13353): 4 µg/mL; MIC (K. pneumoniae H 525; K. pneumoniae H 525): 8 µg/mL; MIC (E. coli M 138; E. coli M 138): 4 µg/mL; MIC (P. mirabilis S 137B): >32 µg/mL; MIC (E. coli 13351; E. coli 13351): 4 µg/mL; MIC (E. coli M 49; E. coli M 49): 32 µg/mL; MIC (E. coli M 36; E. coli M 36): 4 µg/mL; MIC (K. pneumoniae H 523; K. pneumoniae H 523): 8 µg/mL; MIC (E. coli 13352; E. coli 13352): 4 µg/mL; MIC ([1]; compound tested alone): >32 µg/mL; MIC (E. coli M 50; E. coli M 50): 4 µg/mL
O=C(NNC(=O)[C@@H]1CC[C@@H]2CN1C(=O)N2OS(=O)(=O)O)[C@@H]1C[C@@H](n2ccnc2)CN1 [Example 33],4,8,8,4,4,4,> 32,4,16,2,4,4,> 32,2,–
